Assay results taken from patent US11000535B2, “Anticancer composition and use thereof” (KAOHSIUNG MEDICAL UNIVERSITY, priority 2015, dated 2021).
Converted amounts (≈) assume the structure as drawn.

Legend:
Huh7 cells = assay: alamarBlue cell viability / proliferation, Huh7; assay type: cell-based, human
Excerpt: (§1) Next, we analyzed the effect of PGG on cell proliferation in different liver cancer cell lines, including Huh7, Hep3B (ATCC-No 8064), HepG2 (ATCC HB-8065), SK-HEP-1 (ATCC HTB-52), Mahlavu and HepG2 (ATCC HB-8065).
(§2) Please refer to FIG. 18, which illustrates the effect of PGG on cell proliferation in different liver cancer cell lines, wherein the numeral 1 denotes Huh7 cells, the numeral 2 denotes Hep3B cells, the numeral 3 denotes SK-HEP-1 cells, the numeral 4 denotes Mahlavu cells, and the numeral 5 denotes HepG2 cells. And cell viability was determined by the alamarBlue® viability assay. IC50 values of PGG in each cell line are shown as follows: Huh7 cells 0.03 mg/mL, Hep3B cells 0.07 mg/mL, SK-HEP-1 cells, Mahlavu cells and HepG2 0.10 mg/mL dose-dependent.
(§3) Human liver cancer cell lines Huh7, Hep G2, Hep 3B, SK-HEP-1, Mahlavu and embryonic kidney cell line HEK-293T all were cultured in Dulbecco's Modified Eagle's Medium (DMEM) (Gibco BRL, Grand Island, N.Y., USA) with 10% heat-inactivated fetal bovine serum (HyClone, Logan, Utah, USA), penicillin (100 U/mL), streptomycin ([…]), nonessential amino acids (0.1 mM/L) and L-glutamine (2 mM/L) in a humidified incubator with 5% CO2.

Hep3B cells = assay: alamarBlue cell viability, Hep3B; assay type: cell-based, human
Excerpt: as §1, §2, §3

GNMT [1] = assay: GNMT mRNA and protein expression in Huh7 cells (qPCR, immunoblot); assay type: cell-based, human
Protocol: (§4) RNA was prepared by using Tri Reagent (Sigma-Aldrich, St Louis, Mo., USA) and was reverse transcribed into cDNA using a Super Script II Reverse Transcriptase Kit (Invitrogen Inc., Carlsbad, Calif., USA).
(§5) PCR was performed on an ABI StepOne Plus System (Applied Biosystems, Foster City, Calif., USA) using the LightCycler® First Start DNA Master SYBR Green I reagent (Roche Diagnostics, Basel, Switzerland). The mRNA level was normalized using the TATA-box binding protein (TBP) mRNA level as the standard.
The following primers were used: GNMT forward, 5′-ACTGGATGACT CTGGACAA-3′ (SEQ ID NO. 3) and reverse, 5′-ACTGAGGATGTGGTCGT-3′(SEQ ID NO. 4); TBP forward, 5′-[…]-3′ (SEQ ID NO. 5) and reverse, 5′-[…]-3′(SEQ ID NO. 6); c-Myc forward, […](SEQ ID NO. 7) and reverse, […](SEQ ID NO. 8).
Cells or xenograft tumors were harvested with RIPA lysis buffer (50 mM Tris (pH 7.5), 150 mM NaCl, 1% Triton X-100, 0.1% sodium dodecyl sulfate (SDS), 0.5% sodium deoxycholate, supplemented with protease and phosphatase inhibitors (1 mM Phenylmethanesulfonyl Fluoride (PMSF), […], […] Tosyllysine Chloromethyl Ketone (TLCK), […] Tosyl phenylalanyl chloromethyl ketone (TPCK), […] aprotinin, 1 mM sodium fluoride (NaF), 5 mM sodium pyrophosphate (NaPPi) and 10 mM sodium orthovanadate (Na3VO4).
Protein lysates were quantified and separated on SDS-PAGE gel, and immunoblotting was carried out.
The following antibodies were used: anti-GNMT (14-1, YMAC Bio Tech, Taiwan), anti-caspase-3 (9H19L2, Thermo Scientific) and anti-actin (AC-15, Sigma-Aldrich).

GNMT promoter = assay: Dual luciferase GNMT promoter reporter assay in c-Myc knocked-out Huh7 cells; assay type: cell-based, human; conditions: 0.1 mg/mL
Protocol: Huh7 cells were co-transfected with a GNMT promoter reporter plasmid, a thymidine kinase (TK) renilla luciferase plasmid, a shMyc plsmid or a shLacZ plasmid for 72 hours.
Evaluating whether the activity of GNMT promoter is damaged or not by knocking out the c-Myc gene and then administering with PGG, in order to confirm that the inhibition of the expression of c-Myc resulting in induced GNMT promoter due to PGG.
Please refer to FIG. 39, which illustrates overexpressions of PGG and c-Myc have influences on GNMT reporter, wherein the numeral 1 denotes the solvent, the numeral 2 denotes PGG, the numeral 3 denotes shLacZ, and the numeral 4 denotes shMyc.

SK-HEP-1 cells = assay: alamarBlue cell viability, SK-HEP-1; assay type: cell-based, human
Excerpt: as §1, §2, §3

GNMT [2] = assay: GNMT expression in xenograft tumor samples; assay type: in vivo, mice
Excerpt: Please refer to FIG. 21, which illustrates GNMT/actin expression in the tumor tissue.
Please refer to FIG. 30, which illustrates the relative expression of GNMT mRNA in the tumor xenograft mice after treatments, wherein the numeral 1 is for a physiological saline solution, the numeral 2 is for F3-6 (25 mpk), the numeral 3 is for F3-6 (300 mpk), the numeral 4 is for sorafenib (10 mpk), the numeral 5 is for F3-6 (25 mpk) with sorafenib (10 mpk), and the numeral 6 is for PGG (25 mpk) with sorafenib (10 mpk). The expression activity of GNMT mRNA is increased whenever fracrions F3-6 or PGG are administered.
as §4
as §5, with “standard. […]” for “standard.”
Protein lysates were quantified and separated on SDS-PAGE gel, and immunoblotting was carried out. […]

O=C(OC[C@H]1O[C@@H](OC(=O)c2cc(O)c(O)c(O)c2)[C@H](OC(=O)c2cc(O)c(O)c(O)c2)[C@@H](OC(=O)c2cc(O)c(O)c(O)c2)[C@@H]1OC(=O)c1cc(O)c(O)c(O)c1)c1cc(O)c(O)c(O)c1 [PGG, 1,2,3,4,6-penta-O-galloyl-β-D-glucopyranoside]
IC50 (Huh7 cells): 30 µg/mL (≈ 31.9 µM) | IC50 (Hep3B cells): 70 µg/mL (≈ 74.4 µM) | GNMT mRNA expression (GNMT [1]; 0.1 mg/ml, Huh7 cells): induced GNMT mRNA expression | GNMT protein expression (GNMT [1]; 0.1 mg/ml, Huh7 cells): induced GNMT protein expression | time of optimal induced effect on GNMT (GNMT [1]; after administration, qPCR and immunoblot): 48 h | GNMT promoter induction in cells knocked out c-Myc (shMyc vs shLacZ) (GNMT promoter): drop | IC50 (SK-HEP-1 cells): 100 µg/mL (≈ 106 µM) | GNMT/actin expression in the tumor tissue (immunoblot) (GNMT [2]; PGG 300 mpk xenograft, FIG. 21): induced | expression activity of GNMT mRNA in the tumor (GNMT [2]; combination xenograft study, FIG. 30, F3-6 25 or 300 mpk, PGG 25 mpk with sorafenib 10 mpk): increased
